molecular target: T1, human B1R (Homo sapiens, UniProt P46663); assay: Functional assay at bradykinin receptor 1 (B1R): Ca2+ fluorescence (Fluo-4) in FLIPR/Novostar, antagonist mode; assay type: cell-based; details: test substance 10 µM; CHO K1 cells stably transfected with human B1R gene (hB1R-Zellen); agonist Lys-Des-Arg9-Bradykinin at EC80; % inhibition relative to maximal achievable inhibition; read-out: % Inhibierung (human B1R) bei 10 µM
T1 construct: expressed in transfected cells; host or cells: CHO K1 cells (Chinese Hamster Ovary), stably transfected
T1 sequence (P46663 1-353): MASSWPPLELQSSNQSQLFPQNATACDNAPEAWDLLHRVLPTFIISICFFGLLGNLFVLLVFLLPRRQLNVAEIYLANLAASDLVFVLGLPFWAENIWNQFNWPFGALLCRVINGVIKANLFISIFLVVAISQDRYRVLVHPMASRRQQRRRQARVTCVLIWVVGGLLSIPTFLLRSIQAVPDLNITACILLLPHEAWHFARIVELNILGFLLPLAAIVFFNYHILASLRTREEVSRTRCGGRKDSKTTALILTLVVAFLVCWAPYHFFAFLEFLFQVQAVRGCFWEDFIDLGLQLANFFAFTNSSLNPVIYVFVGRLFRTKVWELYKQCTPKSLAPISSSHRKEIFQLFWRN
In short: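 CHO K1 cells stably expressing human B1R were loaded with Fluo-4 and preincubated 6–20 min with test compound before Lys-Des-Arg9-bradykinin at its EC80. Peak fluorescence (ex 488/em 540 nm) gave % inhibition versus maximal inhibition; IC50 from several concentrations, n=2 or 3.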

SMILES | inhibition at 10 µM [%]
COc1cc(C)c(S(=O)(=O)Cc2noc(CC(=O)NC3CCC(c4ccncc4)CC3(C)C)n2)c(C)c1 (centres unmarked) [SC-32, N-(2,2-Dimethyl-4-pyridin-4-yl-cyclohexyl)-2-[3-[[(4-methoxy-2,6-dimethyl-phenyl)sulfonyl]-methyl]-[1,2,4]oxadiazol-5-yl]-acetamid] | 98
COc1cc(C)c(S(=O)(=O)Cc2noc(CC(=O)N(C)C3CCC4(CCN(C)CC4)CC3(C)C)n2)c(C)c1 (centres unmarked) [SC-33, 2-[3-[[(4-Methoxy-2,6-dimethyl-phenyl)sulfonyl]-methyl]-[1,2,4]oxadiazol-5-yl]-N-methyl-N-(4,4,9-trimethyl-9-azaspiro[5.5]undecan-3-yl)-acetamid] | 100
COc1cc(C)c(S(=O)(=O)Cc2noc(CC(=O)NC3CCC(O)CC3(C)C)n2)c(C)c1 (centres unmarked) [SC-35, N-(4-Hydroxy-2,2-dimethyl-cyclohexyl)-2-[3-[[(4-methoxy-2,6-dimethyl-phenyl)sulfonyl]-methyl]-[1,2,4]oxadiazol-5-yl]-acetamid] | 100
COc1cc(C)c(S(=O)(=O)Cc2noc(CC(=O)NC3CCOCC3(C)C)n2)c(C)c1 (centres unmarked) [SC-36, N-(3,3-Dimethyl-tetrahydro-pyran-4-yl)-2-[3-[[(4-methoxy-2,6-dimethyl-phenyl)sulfonyl]-methyl]-[1,2,4]oxadiazol-5-yl]-acetamid] | 98
COc1cc(C)c(S(=O)(=O)Cc2noc(CC(=O)NC3CCC(c4ccncc4)CC3)n2)c(C)c1 (centres unmarked) [SC-37, 2-[3-[[(4-Methoxy-2,6-dimethyl-phenyl)sulfonyl]-methyl]-[1,2,4]oxadiazol-5-yl]-N-(4-pyridin-4-yl-cyclohexyl)-acetamid] | 100
COc1cc(C)c(S(=O)(=O)Cc2noc(CC(=O)NC3CCN(C4CCOCC4)CC3(C)C)n2)c(C)c1 (centres unmarked) [SC-39, N-(3,3-Dimethyl-1-tetrahydro-pyran-4-yl-piperidin-4-yl)-2-[3-[[(4-methoxy-2,6-dimethyl-phenyl)sulfonyl]-methyl]-[1,2,4]oxadiazol-5-yl]-acetamid] | 100
COc1cc(C)c(S(=O)(=O)Cc2noc(CC(=O)NC3CCC(c4ccnc(OC)c4)CC3(C)C)n2)c(C)c1 (centres unmarked) [SC-40, 2-[3-[[(4-Methoxy-2,6-dimethyl-phenyl)sulfonyl]-methyl]-[1,2,4]oxadiazol-5-yl]-N-[4-(2-methoxy-pyridin-4-yl)-2,2-dimethyl-cyclohexyl]-acetamid] | 100
COc1cc(C)c(S(=O)(=O)Cc2noc(CC(=O)N3CCC(c4ccncc4)CC3)n2)c(C)c1 [SC-41, 2-[3-[[(4-Methoxy-2,6-dimethyl-phenyl)sulfonyl]-methyl]-[1,2,4]oxadiazol-5-yl]-1-(4-pyridin-4-yl-piperidin-1-yl)-ethanon] | 97
COc1cc(C)c(S(=O)(=O)Cc2noc(CC(=O)N(C)C3CCN(c4cc(C)nc(C)n4)CC3)n2)c(C)c1 [SC-42, N-[1-(2,6-Dimethyl-pyrimidin-4-yl)-piperidin-4-yl]-2-[3-[[(4-methoxy-2,6-dimethyl-phenyl)sulfonyl]-methyl]-[1,2,4]oxadiazol-5-yl]-N-methyl-acetamid] | 99
COc1cc(C)c(S(=O)(=O)Cc2noc(C(=O)N(C)[C@H]3CCC[C@@H](N4CCN(C)CC4)C3)n2)c(C)c1 [SC-43, 3-[[(4-Methoxy-2,6-dimethyl-phenyl)sulfonyl]-methyl]-N-methyl-N-[(1S,3R)-3-(4-methyl-piperazin-1-yl)-cyclohexyl]-[1,2,4]oxadiazol-5-carbonsäure amid] | 100
COc1cc(C)c(S(=O)(=O)Cc2noc(CC(=O)N(C)[C@H]3CCC[C@@H](N4CCN(C)CC4)C3)n2)c(C)c1 [SC-44, 2-[3-[[(4-Methoxy-2,6-dimethyl-phenyl)sulfonyl]-methyl]-[1,2,4]oxadiazol-5-yl]-N-methyl-N-[(1S,3R)-3-(4-methyl-piperazin-1-yl)-cyclohexyl]-acetamid] | 100
COc1cc(C)c(S(=O)(=O)Cc2noc(CC(=O)N(C)C3CCN(C(=O)CCN4CCCCC4)CC3)n2)c(C)c1 [SC-46, 2-[3-[[(4-Methoxy-2,6-dimethyl-phenyl)sulfonyl]-methyl]-[1,2,4]oxadiazol-5-yl]-N-methyl-N-[1-(3-piperidin-1-yl-propanoyl)-piperidin-4-yl]-acetamid] | 100
Cc1cccc(Cl)c1S(=O)(=O)Cc1noc(C(=O)N(C)[C@H]2CCC[C@@H](N3CCN(C)CC3)C2)n1 [SC-49, 3-[[(2-Chlor-6-methyl-phenyl)sulfonyl]-methyl]-N-methyl-N-[(1S,3R)-3-(4-methyl-piperazin-1-yl)-cyclohexyl]-[1,2,4]oxadiazol-5-carbonsäure amid] | 99
Cc1cccc(Cl)c1S(=O)(=O)Cc1noc(CC(=O)N(C)[C@H]2CCC[C@@H](N3CCN(C)CC3)C2)n1 [SC-50, 2-[3-[[(2-Chlor-6-methyl-phenyl)sulfonyl]-methyl]-[1,2,4]oxadiazol-5-yl]-N-methyl-N-[(1S,3R)-3-(4-methyl-piperazin-1-yl)-cyclohexyl]-acetamid] | 89
COc1cc(C)c(S(=O)(=O)Cc2noc(CC(=O)N3CCN(Cc4ccc(OC)nc4)CC3)n2)c(C)c1 [SC-51, 2-[3-[[(4-Methoxy-2,6-dimethyl-phenyl)sulfonyl]-methyl]-[1,2,4]oxadiazol-5-yl]-1-[4-[(6-methoxy-pyridin-3-yl)-methyl]-piperazin-1-yl]-ethanon] | 100
COc1cc(C)c(S(=O)(=O)Cc2noc(CC(=O)N3CCN(Cc4ccnc(N5CCCC5)c4)CC3)n2)c(C)c1 [SC-52, 2-[3-[[(4-Methoxy-2,6-dimethyl-phenyl)sulfonyl]-methyl]-[1,2,4]oxadiazol-5-yl]-1-[4-[(2-pyrrolidin-1-yl-pyridin-4-yl)-methyl]-piperazin-1-yl]-ethanon] | 100
COc1cc(C)c(S(=O)(=O)Cc2noc(CC(=O)N(C)C3CCN(Cc4ccc(OC)nc4)CC3)n2)c(C)c1 [SC-55, 2-[3-[[(4-Methoxy-2,6-dimethyl-phenyl)sulfonyl]-methyl]-[1,2,4]oxadiazol-5-yl]-N-[1-[(6-methoxy-pyridin-3-yl)-methyl]-piperidin-4-yl]-N-methyl-acetamid] | 100
COc1cc(C)c(S(=O)(=O)Cc2noc(CC(=O)N(C)C3CCN(Cc4ccnc(N5CCCC5)c4)CC3)n2)c(C)c1 [SC-57, 2-[3-[[(4-Methoxy-2,6-dimethyl-phenyl)sulfonyl]-methyl]-[1,2,4]oxadiazol-5-yl]-N-methyl-N-[1-[(2-pyrrolidin-1-yl-pyridin-4-yl)-methyl]-piperidin-4-yl]-acetamid] | 100
COc1cc(C)c(S(=O)(=O)Cc2noc(CC(=O)N(C)C3CCC(N4CCN(C)CC4)CC3)n2)c(C)c1 (centres unmarked) [SC-58, 2-[3-[[(4-Methoxy-2,6-dimethyl-phenyl)sulfonyl]-methyl]-[1,2,4]oxadiazol-5-yl]-N-methyl-N-[4-(4-methyl-piperazin-1-yl)-cyclohexyl]-acetamid] | 100
COc1cc(C)c(S(=O)(=O)Cc2noc(C(=O)N3CCN(Cc4ccc(OC)nc4)CC3)n2)c(C)c1 [SC-59, [3-[[(4-Methoxy-2,6-dimethyl-phenyl)sulfonyl]-methyl]-[1,2,4]oxadiazol-5-yl]-[4-[(6-methoxy-pyridin-3-yl)-methyl]-piperazin-1-yl]-methanon] | 100

From patent EP2857388A1, “Azoles containing sulfone” (Grünenthal GmbH, priority 2013, dated 2015)
